Data taken from US10370436B2, “Anti-pseudomonas Psl binding molecules and uses thereof” (priority 2011, dated 2019).

How the values were obtained:
P. aeruginosa PAO1 cells = experiment: Flow cytometry (FACS) whole cell binding; parameters: species or system Pseudomonas aeruginosa; details: PAO1ΔpslA; FIG. 3C
Description: For IgG expression, the VH and VL chains of selected antibodies were cloned into human IgG1 expression vectors, co-expressed in HEK293 cells, and purified by protein A affinity chromatography as described (Persic, L., et al., Gene 187, 9-18 (1997)). Human IgG1 antibodies made with the variable regions from these selected serotype independent phage were confirmed for P. aeruginosa specificity and prioritized for subsequent analysis by whole cell binding to dominant clinically relevant serotypes by FACS analysis (FIG. 1F), since this method is more stringent than ELISA. For the flow cytometry based binding assays mid-log phase P. aeruginosa strains were concentrated in PBS to an OD650 of 2.0. […] Samples were run on a LSR II flow cytometer (BD Biosciences) and analyzed using BD FacsDiva (v. 6.1.3) and FlowJo (v. 9.2; TreeStar).
CAM-003 is specific for the P. aeruginosa Psl surface exopolysaccharide and mediates potent OPK activity and protection in multiple in vivo models. […] Conjugation efficiency of PMB-mAbs variants was determined by mass spectrometry analysis of heavy chains in purified conjugates. […] Contamination with free PMB in the purified preparations was determined to be negligible. Binding of PMB-Cam-003 and PMB-A7 conjugates to P. aeruginosa PAO1 cells was evaluated by FACS. […] Samples were stained and analyzed as previously described in Example 1. […]

[1] = tested on: luminescent P. aeruginosa serogroup 05 strain (PAO1.lux); experiment: Opsonophagocytosis killing (OPK) assay, PAO1.lux; assay type: cell-based, Pseudomonas aeruginosa
Experimental: (§1) This example describes the evaluation of prioritized human IgG1 antibodies to promote OPK of P. aeruginosa. […] OPK assays were performed as described in (DiGiandomenico, A., et al., Infect Immun 72, 7012-7021 (2004)), with modifications. Briefly, assays were performed in 96-well plates using 0.025 ml of each OPK component; P. aeruginosa strains; diluted baby rabbit serum; differentiated HL-60 cells; and monoclonal antibody. In some OPK assays, luminescent P. aeruginosa strains, which were constructed as described (Choi, K. H., et al., Nat Methods 2, 443-448 (2005)), were used. Luminescent OPK assays were performed as described above but with determination of relative luciferase units (RLUs) using a Perkin Elmer ENVISION Multilabel plate reader (Perkin Elmer).
This example describes two series of experiments evaluating the ability of PMB-mAb conjugates to promote OPK of P. aeruginosa. In the first experiments (FIGS. 15A-B), conjugate-mediated OPK activity by human HL-60 neutrophil cell line in the presence of rabbit complement was evaluated using P. aeruginosa strains expressing bacterial luciferase as described in Example 2. R347 was used as a negative control in these experiments. […] In the second series of experiments, reduction in luminescence following 2 h incubation relative to control lacking mAb was used to determine % killing.

[2] = tested on: P. aeruginosa strain 9882-80 (O11); experiment: OPK assay, strain 9882-80.lux; assay type: cell-based, Pseudomonas aeruginosa; details: strain 9882-80.lux (O11); FIG. 2B
Experimental: as §1
The ability of the WapR-004 and Cam-003 antibodies to mediate OPK activity against another clinically relevant O-antigen serotype strain, 9882-80.lux, was evaluated.

[3] = tested on: P. aeruginosa PAO1.lux association with A549 cells; experiment: Cell attachment assay, PAO1.lux to A549 cells; assay type: cell-based, Pseudomonas aeruginosa; details: MOI of 10, FIG. 4, FIG. 9B
Experimental: Anti-Psl antibodies were added to a confluent monolayer of A549 cells (an adenocarcinoma human alveolar basal epithelial cell line) grown in opaque 96-well plates (Nunc Nunclon Delta). Log-phase luminescent P. aeruginosa PAO1 strain (PAO1.lux) was added at an MOI of 10. After incubation of PAO1.lux with A549 cells at 37° C. for 1 hour, the A549 cells were washed, followed by addition of LB+0.5% glucose. Bacteria were quantified following a brief incubation at 37° C. as performed in the OPK assay described in Example 2. Measurements from wells without A549 cells were used to correct for non-specific binding.

Substance: Cam-003: human IgG1 anti-Psl monoclonal antibody, VH SEQ ID NO: 1 and VL SEQ ID NO: 2
- FACS binding (P. aeruginosa PAO1 cells): abolished
- OPK EC50 ([1]; FIG. 9A): 0.06 µg/mL
- OPK activity (concentration dependent killing) ([1]; human IgG1 antibodies, differentiated HL-60 cells, baby rabbit serum, FIG. 2A): superior OPK activity
- OPK activity [2]: OPK activity extends to strain 9882-80
- inhibition of association of PAO1.lux to A549 cells [3]: most active at inhibiting P. aeruginosa cell attachment to A549 lung epithelial cells
